Entries after “also recorded” stand apart in the source; their conditions may differ.
Tests used:
B. subtilis MF920 = assay: Survival rate (viable cell count) after addition of amino acids and heat treatment; type: cell-based, Bacillus subtilis; settings: heated at 80° C. for 10 minutes; for viable cell count compared with sterilized purified water alone: amino acid 1% (w/v), FIG. 5
Procedure: In the same manner as the above-mentioned (1)-(i), additives of glycine, L-alanine, L-serine, L-lysine monohydrochloride, L-threonine and L-arginine monohydrochloride were dissolved in sterilized purified water, respectively to prepare amino acid solutions of 10% (w/v). Then a bacteria solution (B. subtilis MF920) was added to 1 ml of each of the amino acid solutions so that amino acid concentration in each tube would be 1% (w/v).
The test tubes were heated at 80° C. for 10 minutes and then quenched. Then, 10 fold dilutions of the obtained bacteria solutions were prepared.
0.1 ml of each dilution was inoculated on three dishes and incubated 2 days to count expressed colonies. The survival rate was measured in the same manner as described above.
Change in the bacteria survival rate was examined in the same manner as the above-mentioned (2) except that the concentration of L-serine was varied within 0.01 to 1% (w/v).

Escherichia coli = settings: in the presence of ethanol; cited from earlier work
S. typhimurium = assay: Growth curve by turbidity at 660 nm; type: cell-based, Salmonella typhimurium
Procedure: (§1) (iii) L-serine or D-serine as the amino acid was dissolved in sterilized purified water and added with bacteria solutions (B. subtilis and S. typhimurium) of the same amount and then introduced in test tubes. 1 ml of each solution was inoculated on a 9 ml DM medium (partially modified) so that final serine concentration would be 0.5% (w/v). Turbidity of the medium added with the bacteria solution and serine was measured on 660 nm at 37° C. for 10 hours immediately after the inoculation and then growth curves of B. subtilis and S. typhimurium were formed.
(§2) As a control, turbidity was measured on a medium merely added with sterilized purified water instead of serine.
(§3) (ii) Turbidity was measured on 660 nm for 8 hours immediately after the inoculation and growth curves of S. typhimurium and B. subtilis were formed in substantially the same manner as the above-described (1)-(iii), except that only L-serine or D-serine of 0.5% (w/v), or L-serine or D serine of 0.5% (w/v) in combination with protamine of 0.03% (w/v), each at the final concentration, were added and solutions of S. typhimurium and B. subtilis were used.
(§4) With compounds shown in FIGS. 14, 16 and 18, growth curves of S. typhimurium, B. subtilis and E. coli were formed in substantially the same manner as the above-described (1)-(111), respectively. The results are shown in FIGS. 14, 16 and 18, respectively. For comparison, the compounds were solely used without L-serine and the growth curves of S. typhimurium, B. subtilis and E. coli were formed. The results are shown in FIGS. 15, 17 and 19, respectively.

B. subtilis = assay: Growth curve by turbidity at 660 nm; type: cell-based, Bacillus subtilis; settings: for proliferation of B. subtilis compared with the control: serine 0.5% (w/v), 37° C., 10 hours, turbidity 660 nm, FIG. 3
Procedure: as §1, §2, §3
Growth curves of B. subtilis were formed in the same manner as the above-described (4) except that protamine of 0.03% (w/v) was replaced with lysozyme of 0.1% (w/v).
as §4

E. coli [1] = assay: E. coli survival rate after heat treatment in the presence of casein; type: cell-based, Escherichia coli; settings: L-serine 1% (w/v), casein 1 to 4% (w/v), heated at 40° C. for 10 minutes; FIG. 11
Procedure: L-serine of 0% or 1% (w/v), casein of 1 to 4% (w/v) and a 802 growth medium were added in test tubes. The test tubes were heated at 40° C. for 10 minutes and quenched. 10-fold dilutions of the resulting solutions were prepared. 0.1 ml of each of the dilutions was inoculated on three dishes, incubated for one day and expressed colonies were counted to examine change in the E. coli survival rate.

[2] = Amino acid analysis of L-serine after a heat treatment; type: physicochemical; settings: for L-serine concentration: nominal 2 nmol/10 μl
Procedure: L-serine was added in 1% (w/v) to the bacteria solution and to the medium used in the above. The obtained bacteria culture solution and medium were divided in two test tubes, respectively. One of them was allowed to stand at room temperature for 10 minutes and the other was heated at 80° C. for 10 minutes. Both were quenched and diluted so that the L-serine concentration would be 2 nmol/10 μl and amino acid analysis was carried out with an amino acid automatic analyzer.

E. coli [3] = assay: Growth curve by turbidity at 660 nm; type: cell-based, Escherichia coli; settings: L-serine 1.5% (w/v) solely, 8 hours; FIG. 7
Procedure: as §1, §2
(i) Turbidity of the medium was measured on 660 nm for 8 hours immediately after the inoculation and the growth curve of E. coli was formed in the same manner as the above-described (1)-(iii) except that L-serine of 1.5% (w/v), or L-serine or D-serine of 1.5% (w/v) and protamine of 0.1% (w/v), each at the final concentration, were added and an E. coli solution was used.
With compounds shown in FIGS. 14, 16 and 18, growth curves of S. typhimurium, B. subtilis and E. coli were formed in substantially the same manner as the above-described (1)-(111), respectively. The results are shown in FIGS. 14, 16 and 18, respectively. […]

E. coli [4] = assay: Survival rate of E. coli after addition of L- or D-serine, with or without heat treatment; type: cell-based, Escherichia coli; settings: serine 0.5% (w/v), FIG. 2
Procedure: (i) Glycine, L-alanine, L-serine, L-lysine monohydrochloride, L threonine or L-arginine monohydrochloride was put in test tubes as an additive, respectively, and dissolved in sterilized purified water to prepare amino acid solutions of 10% (w/v). To 1 ml of each of the amino acid solutions 9 ml of the bacteria solution was added so that the concentration of each amino acid would be 1% (w/v).
The test tubes containing these amino acids and the bacteria solution were allowed to stand at room temperature for 10 minutes and 10^4 fold dilutions were obtained from the resulting solutions.
0.1 ml of each dilution was inoculated on three dishes and incubated for 2 days to count the number of expressed colonies as the viable cell count.
In the same manner as described above, a 10^4 fold dilution prepared without adding amino acid was used as a blank and incubated to count expressed colonies as the viable cell count.
As a survival rate, the viable cell count of bacteria added with amino acid with respect to the viable cell count measured in the blank was measured.
(ii) The survival rate of E. coli was measured in the same manner as described above except that L-serine and D-serine of 0.5% (w/v) as the amino acids and an E. coli solution as the bacteria solution were used.

[5] = serine 0.5% (w/v) only, 8 hours, FIG. 8
[6] = serine 0.5% (w/v), 37° C., 10 hours, turbidity 660 nm, FIG. 4

Cl.N=C(N)NCCC[C@H](N)C(=O)O [L-arginine, L-arginine monohydrochloride]
viable cell count compared with sterilized purified water alone (B. subtilis MF920): increase

C[C@@H](O)[C@H](N)C(=O)O [L-threonine]
viable cell count compared with sterilized purified water alone (B. subtilis MF920): increase

NCC(=O)O [glycine]
bacteriostasis to Escherichia coli (Escherichia coli): shows bacteriostasis
viable cell count compared with sterilized purified water alone (B. subtilis MF920): slightly reduced

N[C@H](CO)C(=O)O [D-serine]
proliferation of S. typhimurium relative to the control (S. typhimurium; [5]): about 80%
proliferation of S. typhimurium relative to the control (S. typhimurium; [6]): about 80%
proliferation of B. subtilis relative to the control (B. subtilis; serine 0.5% (w/v) only, 8 hours, FIGS. 9 and 10): about 50%
proliferation of B. subtilis compared with the control (B. subtilis): 80%

Cl.NCCCC[C@H](N)C(=O)O [L-lysine, L-lysine monohydrochloride]
viable cell count compared with sterilized purified water alone (B. subtilis MF920): increase

N[C@@H](CO)C(=O)O [L-serine]
proliferation of S. typhimurium relative to the control (S. typhimurium; [5]): about 80%
proliferation of S. typhimurium relative to the control (S. typhimurium; [6]): about 80%
E. coli proliferation in the presence of casein (E. coli [1]): effective inhibition
decomposition by heating ([2]; 80° C. for 10 minutes, regardless of the presence of bacteria): would not be decomposed
L-serine concentration ([2]; bacteria solution heated (80° C., 10 minutes)): 2.3 nmol/10 μl
L-serine concentration ([2]; bacteria solution unheated (room temperature 10 minutes)): 2.3 nmol/10 μl
L-serine concentration ([2]; medium heated (80° C., 10 minutes)): 2.3 nmol/10 μl
L-serine concentration ([2]; medium unheated (room temperature 10 minutes)): 2.2 nmol/10 μl
proliferation of E. coli relative to the control (E. coli [3]): about 40%
proliferation of B. subtilis compared with the control (B. subtilis): about 10%
survival rate as a function of L-serine concentration (B. subtilis MF920; L-serine 0.01 to 1% (w/v), FIG. 6): the higher the L-serine concentration was, the more the survival rate decreased
viable cell count compared with sterilized purified water alone (B. subtilis MF920): remarkably reduced; also recorded: greatest reduction
bacteria proliferation after heat treatment (E. coli [4]; heat treatment at 80° C. for 10 minutes): further inhibited
bacteria proliferation relative to the blank (E. coli [4]; no heat treatment): about 30%

C[C@H](N)C(=O)O [L-alanine]
viable cell count compared with sterilized purified water alone (B. subtilis MF920): slightly reduced

From patent US6602532B2, “Process of preserving food and food preservative” (F.G.A. Laboratories Flavourence Corporation, priority 2000, dated 2003)
